According to US7943770B2, “Fused quinoline derivative and use thereof” (Takeda Pharmaceutical Company Limited, priority 2004, dated 2011):
Counter-ions that a name gives are not always drawn.

What follows are compounds tested against T1, hNK2 receptor (Homo sapiens, UniProt P21452) (assay: Radio-ligand ([125I]-NKA) receptor binding inhibitory activity using membrane fraction of hNK2 receptor-expressing CHO cell). Settings: membrane fraction of hNK2 receptor-expressing CHO cells, 25° C., 30 min.
T1 construct: host or cells: CHO cells
T1 sequence (P21452 1-398): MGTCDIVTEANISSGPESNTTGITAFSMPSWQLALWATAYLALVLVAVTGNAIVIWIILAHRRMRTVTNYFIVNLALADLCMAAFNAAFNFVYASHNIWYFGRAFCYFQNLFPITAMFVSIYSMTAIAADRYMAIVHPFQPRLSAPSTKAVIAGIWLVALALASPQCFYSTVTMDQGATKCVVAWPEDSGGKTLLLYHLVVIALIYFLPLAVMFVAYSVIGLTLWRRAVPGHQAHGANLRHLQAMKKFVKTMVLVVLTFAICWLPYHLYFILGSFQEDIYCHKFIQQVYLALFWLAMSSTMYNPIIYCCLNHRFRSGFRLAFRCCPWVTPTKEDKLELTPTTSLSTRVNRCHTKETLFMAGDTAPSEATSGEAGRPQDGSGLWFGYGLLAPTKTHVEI
Procedure, shortened: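 Inhibition of [125I]-NKA binding ([…] solution added) measured after 30 min at 25 °C using hNK2-CHO membrane fraction (20 μg/mL suspension) in pH 7.4 Tris buffer containing MnCl2, BSA and protease inhibitors. Filter-bound counts read; activity calculated as fraction of specific binding, non-specific defined with unlabeled NKA.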

Compound	IC50 [nM]
COC[C@@H]1Nc2ccccc2[C@H]2[C@@H]1CCN2C(=O)[C@H]1CCCC[C@H]1NC(=O)c1ccc(C#N)c(C)c1 [Example 256, 4-Cyano-N-((1R,2S)-2-{[(3aR,4R,9bR)-4-(methoxymethyl)-2,3,3a,4,5,9b-hexahydro-1H-pyrrolo[3,2-c]quinolin-1-yl]carbonyl}cyclohexyl)-3-methylbenzamide]	< 1
COC[C@@H]1Nc2ccccc2[C@H]2[C@@H]1CCN2C(=O)[C@H]1CCCC[C@H]1NC(=O)c1ccc(C#N)c(OC)c1 [Example 274, 4-Cyano-3-methoxy-N-((1R,2S)-2-{[(3aR,4R,9bR)-4-(methoxymethyl)-2,3,3a,4,5,9b-hexahydro-1H-pyrrolo[3,2-c]quinolin-1-yl]carbonyl}cyclohexyl)benzamide]	< 10
O=C(N[C@@H]1CCCC[C@@H]1C(=O)N1CC[C@@H]2[C@H](c3ccccc3)Nc3ccccc3[C@@H]21)c1ccccc1 [Example 58, N-{(1R,2S)-2-[((3aR,4R,9bR)-4-Phenyl-2,3,3a,4,5,9b-hexahydro-1H-pyrrolo[3,2-c]quinolin-1-yl)carbonyl]cyclohexyl}benzamide]	< 10
COC[C@@H]1Nc2ccccc2[C@H]2[C@@H]1CCN2C(=O)[C@H]1CCCC[C@H]1NC(=O)Nc1ccc(F)cc1 [Example 205, N-(4-Fluorophenyl)-N′-((1R,2S)-2-{[(3aR,4R,9bR)-4-(methoxymethyl)-2,3,3a,4,5,9b-hexahydro-1H-pyrrolo[3,2-c]quinolin-1-yl]carbonyl}cyclohexyl)urea]	< 1
COC[C@@H]1Nc2ccccc2[C@H]2[C@@H]1CCN2C(=O)[C@H]1CCCC[C@H]1NC(=O)c1ccc(N2CCN(C)CC2)cc1 [Example 267, N-((1R,2S)-2-{[(3aR,4R,9bR)-4-(Methoxymethyl)-2,3,3a,4,5,9b-hexahydro-1H-pyrrolo[3,2-c]quinolin-1-yl]carbonyl}cyclohexyl)-4-(4-methylpiperazin-1-yl)benzamide]	< 10
O=C(Nc1ccccn1)N[C@@H]1CCCC[C@@H]1C(=O)N1CC[C@@H]2[C@H](c3ccccc3)Nc3ccccc3[C@@H]21 [Example 170, N-((1R,2S)-2-{[(3aR,4R,9bR)-4-Phenyl-2,3,3a,4,5,9b-hexahydro-1H-pyrrolo[3,2-c]quinolin-1-yl]carbonyl}cyclohexyl)-N′-pyridin-2-ylurea]	< 10
COC[C@@H]1Nc2ccccc2[C@H]2[C@@H]1CCN2C(=O)[C@H]1CCCC[C@H]1NC(=O)c1ccc2[nH]ccc2c1 [Example 218, N-((1R,2S)-2-{[(3aR,4R,9bR)-4-(Methoxymethyl)-2,3,3a,4,5,9b-hexahydro-1H-pyrrolo[3,2-c]quinolin-1-yl]carbonyl}cyclohexyl)-1H-indole-5-carboxamide]	< 1
O=C(/C=C/c1ccc(C(F)(F)F)cc1)N[C@@H]1CCCC[C@@H]1C(=O)N1CC[C@@H]2[C@H](c3ccccc3)Nc3ccccc3[C@@H]21 [Example 106, (2E)-N-((1R,2S)-2-{[(3aR,4R,9bR)-4-Phenyl-2,3,3a,4,5,9b-hexahydro-1H-pyrrolo[3,2-c]quinolin-1-yl]carbonyl}cyclohexyl)-3-[4-(trifluoromethyl)phenyl]acrylamide]	< 10
O=C(N[C@@H]1CCCC[C@@H]1C(=O)N1CC[C@@H]2[C@H](c3ccccc3)Nc3ccccc3[C@@H]21)c1ncc[nH]1 [Example 129, N-((1R,2S)-2-{[(3aR,4R,9bR)-4-Phenyl-2,3,3a,4,5,9b-hexahydro-1H-pyrrolo[3,2-c]quinolin-1-yl]carbonyl}cyclohexyl)-1H-imidazole-2-carboxamide]	< 10
O=C(NCCCN1CCCC1=O)N[C@@H]1CCCC[C@@H]1C(=O)N1CC[C@@H]2[C@H](c3ccccc3)Nc3ccccc3[C@@H]21 [Example 168, N-[3-(2-oxopyrrolidin-1-yl)propyl]-N′-((1R,2S)-2-{[(3aR,4R,9bR)-4-phenyl-2,3,3a,4,5,9b-hexahydro-1H-pyrrolo[3,2-c]quinolin-1-yl]carbonyl}cyclohexyl)urea]	< 10
O=C(N[C@@H]1CCCC[C@@H]1C(=O)N1CC[C@@H]2[C@H](c3ccn[nH]3)Nc3ccccc3[C@@H]21)c1ccccc1 (relative stereo) [Example 56, N-((1R,2S)-2-{[(3aR*,4R*,9bR*)-4-(1H-Pyrazol-5-yl]-2,3,3a,4,5,9b-hexahydro-1H-pyrrolo[3,2-c]quinolin-1-yl]carbonyl}cyclohexyl)benzamide]	< 10
COC[C@@H]1Nc2ccccc2[C@H]2[C@@H]1CCN2C(=O)[C@H]1CCCC[C@H]1NC(=O)c1ccc(F)c(F)c1 [Example 212, 3,4-Difluoro-N-((1R,2S)-2-{[(3aR,4R,9bR)-4-(methoxymethyl)-2,3,3a,4,5,9b-hexahydro-1H-pyrrolo[3,2-c]quinolin-1-yl]carbonyl}cyclohexyl)benzamide]	< 1
CCC[C@@H]1Nc2ccccc2[C@H]2[C@@H]1CCN2C(=O)[C@H]1CCCC[C@H]1NC(=O)c1ccc(C#N)cc1 [Example 202, 4-Cyano-N-((1R,2S)-2-{[(3aR,4S,9bR)-4-propyl-2,3,3a,4,5,9b-hexahydro-1H-pyrrolo[3,2-c]quinolin-1-yl]carbonyl}cyclohexyl)benzamide]	< 1
O=C(N[C@@H]1CCCC[C@@H]1C(=O)N1CC[C@@H]2C(C3CCOCC3)Nc3ccccc3[C@@H]21)c1ccccc1 (stereo in doubt) [Example 79, N-((1R,2S)-2-{[(3aR,4R,9bR)-4-Tetrahydro-2H-pyran-4-yl-2,3,3a,4,5,9b-hexahydro-1H-pyrrolo[3,2-c]quinolin-1-yl]carbonyl}cyclohexyl)benzamide]	< 10
COC[C@@H]1Nc2ccccc2[C@H]2[C@@H]1CCN2C(=O)[C@H]1CCCC[C@H]1NC(=O)c1ccc(-c2csc(C)n2)cc1 [Example 261, N-((1R,2S)-2-{[(3aR,4R,9bR)-4-(Methoxymethyl)-2,3,3a,4,5,9b-hexahydro-1H-pyrrolo[3,2-c]quinolin-1-yl]carbonyl}cyclohexyl)-4-(2-methyl-1,3-thiazol-4-yl)benzamide]	< 1
O=C(CCc1ccccc1)N[C@@H]1CCCC[C@@H]1C(=O)N1CC[C@@H]2[C@H](c3ccccc3)Nc3ccccc3[C@@H]21 [Example 103, 3-Phenyl-N-((1R,2S)-2-{[(3aR,4R,9bR)-4-phenyl-2,3,3a,4,5,9b-hexahydro-1H-pyrrolo[3,2-c]quinolin-1-yl]carbonyl}cyclohexyl)propanamide]	< 1
COC[C@@H]1Nc2ccccc2[C@H]2[C@@H]1CCN2C(=O)[C@H]1CCCC[C@H]1NC(=O)c1c[nH]c(-c2ccccc2)n1 [Example 280, N-((1R,2S)-2-{[(3aR,4R,9bR)-4-(Methoxymethyl)-2,3,3a,4,5,9b-hexahydro-1H-pyrrolo[3,2-c]quinolin-1-yl]carbonyl}cyclohexyl)-2-phenyl-1H-imidazole-4-carboxamide]	< 1
CCOC(=O)c1ccc(NC(=O)N[C@@H]2CCCC[C@@H]2C(=O)N2CC[C@@H]3[C@H](c4ccccc4)Nc4ccccc4[C@@H]32)cc1 [Example 159, Ethyl 4-({[((1R,25)-2-{[(3aR,4R,9bR)-4-phenyl-2,3,3a,4,5,9b-hexahydro-1H-pyrrolo[3,2-c]quinolin-1-yl]carbonyl}cyclohexyl)amino]carbonyl}amino)benzoate]	< 10
CNC[C@@H]1Nc2ccccc2[C@H]2[C@@H]1CCN2C(=O)[C@H]1CCCC[C@H]1NC(=O)c1ccccc1 (relative stereo) [Example 53, N-[(1R,2S)-2-({(3aR*,4R*,9bR*)-4-[(Methylamino)methyl]-2,3,3a,4,5,9b-hexahydro-1H-pyrrolo[3,2-c]quinolin-1-yl}carbonyl)cyclohexyl]benzamide dihydrochloride]	< 10
NC(=O)c1ccc(C(=O)N[C@@H]2CCCC[C@@H]2C(=O)N2CC[C@@H]3[C@H](c4ncc[nH]4)Nc4ccccc4[C@@H]32)cc1 [Example 306, N-((1R,2S)-2-{[(3aR,4R,9bR)-4-(1H-Imidazol-2-yl)-2,3,3a,4,5,9b-hexahydro-1H-pyrrolo[3,2-c]quinolin-1-yl]carbonyl}cyclohexyl)terephthalamide]	< 10
COC[C@@H]1Nc2ccccc2[C@H]2[C@@H]1CCN2C(=O)[C@H]1CCCC[C@H]1NC(=O)Nc1ccccc1 [Example 204, N-((1R,2S)-2-{[(3aR,4R,9bR)-4-(Methoxymethyl)-2,3,3a,4,5,9b-hexahydro-1H-pyrrolo[3,2-c]quinolin-1-yl]carbonyl}cyclohexyl)-N′-phenylurea]	< 1
COC[C@@H]1Nc2ccccc2[C@H]2[C@@H]1CCN2C(=O)[C@H]1CCCC[C@H]1NC(=O)c1ccc(-c2cnco2)cc1 [Example 290, N-((1R,2S)-2-{[(3aR,4R,9bR)-4-(Methoxymethyl)-2,3,3a,4,5,9b-hexahydro-1H-pyrrolo[3,2-c]quinolin-1-yl]carbonyl}cyclohexyl)-4-(1,3-oxazol-5-yl)benzamide]	< 1
O=C(N[C@@H]1CCCC[C@@H]1C(=O)N1CC[C@@H]2[C@H](c3cccs3)Nc3ccccc3[C@@H]21)c1ccccc1 (relative stereo) [Example 17, N-((1R,2S)-2-{[(3aR*,4R*,9bR*)-4-(2-Thienyl)-2,3,3a,4,5,9b-hexahydro-1H-pyrrolo[3,2-c]quinolin-1-yl]carbonyl}cyclohexyl)benzamide]	< 10
O=C(N[C@@H]1CCCC[C@@H]1C(=O)N1CC[C@@H]2[C@H](c3ccccc3)Nc3ccccc3[C@@H]21)c1ccc(CO)cc1 [Example 120, 4-(Hydroxymethyl)-N-((1R,2S)-2-{[(3aR,4R,9bR)-4-phenyl-2,3,3a,4,5,9b-hexahydro-1H-pyrrolo[3,2-c]quinolin-1-yl]carbonyl}cyclohexyl)benzamide]	< 10
